Counter-ions that a name gives are not always drawn. Like-named read-outs stand apart in the source and are kept apart here.
Tests used:
[1] = tested on: TanUPO; settings: read-out: apparent kinetic parameters; co-substrate H2O2 2 mM; McIlvaine buffer pH 4.5
[2] = tested on: T1, TanUPO; assay: HPLC-ELSD of […],15-EET formation; format: biochemical, Truncatella angustata; settings: co-substrate H2O2 (from glucose/glucose oxidase); 20 mM phosphate pH 7.0, 30 °C, 20% (v/v) acetone; sigmoidal kinetics (Hill)
T1 construct: native wild-type purified from culture of own fungal isolate; glycosylated heme-thiolate protein

SMILES	Km [1] [µM]	Km [2] [µM]
CCn1c(=NN=c2sc3cc(S(=O)(=O)O)ccc3n2CC)sc2cc(S(=O)(=O)O)ccc21 [ABTS, 2,2′-azino-di(3-ethylbenzthiazoline-6-sulfonate) di-ammonium salt]	257	–
CCCCC/C=C\C/C=C\C/C=C\C/C=C\CCCC(=O)O [arachidonic acid, (5Z,8Z,11Z,14Z)-5,8,11,14-eicosatetraenoic acid]	–	~200
